Data from publication PMC5218480 (PLoS ONE, 2017).

System: MV-4-11 cells
Test: Gene expression microarray analysis (Affymetrix PrimeView) and GSEA
Format: cell-based, human
Parameters: RFU PODN (11730768_x_at) / Fold change /veh PODN (11730768_x_at) / RFU LINC00158 (11744669_a_at) / Fold change /veh LINC00158 (11744669_a_at) / RFU DUSP10 (11751237_a_at) / Fold change /veh DUSP10 (11751237_a_at) / RFU ID3 (11757404_x_at) / Fold change /veh ID3 (11757404_x_at) / RFU PLEKHG5 (11737974_s_at) / Fold change /veh PLEKHG5 (11737974_s_at) / RFU LRRC4B (11730491_at) / Fold change /veh LRRC4B (11730491_at) / RFU GIMAP4 (11747438_a_at) / Fold change /veh GIMAP4 (11747438_a_at) / RFU KRT8 (11758183_x_at) / Fold change /veh KRT8 (11758183_x_at) / RFU CNN1 (11734310_a_at) / Fold change /veh CNN1 (11734310_a_at) / RFU VPS37D (11726825_at) / Fold change /veh VPS37D (11726825_at) / RFU C10orf10 (11716522_x_at) / Fold change /veh C10orf10 (11716522_x_at) / RFU KIR2DL2 /// KIR2DL4 /// KIR2DL5A /// KIR2DL5B /// KIR2DS1 /// KIR2DS2 /// KIR2DS3 /// KIR2DS4 /// KIR3DL3 /// KIR3DL3 /// KIR3DS1 (11738374_at) / Fold change /veh KIR2DL2 /// KIR2DL4 /// KIR2DL5A /// KIR2DL5B /// KIR2DS1 /// KIR2DS2 /// KIR2DS3 /// KIR2DS4 /// KIR3DL3 /// KIR3DL3 /// KIR3DS1 (11738374_at) / RFU C1QL1 (11718748_at) / Fold change /veh C1QL1 (11718748_at) / RFU TMPRSS4 (11747572_a_at) / Fold change /veh TMPRSS4 (11747572_a_at) / RFU HAMP (11756126_x_at) / Fold change /veh HAMP (11756126_x_at) / RFU RNFT2 (11725882_a_at) / Fold change /veh RNFT2 (11725882_a_at) / RFU NR4A2 (11747474_a_at) / Fold change /veh NR4A2 (11747474_a_at) / RFU ABCC12 (11746883_a_at) / Fold change /veh ABCC12 (11746883_a_at) / RFU TMEM136 (11760407_x_at) / Fold change /veh TMEM136 (11760407_x_at) / RFU CLDN22 /// WWC2 (11732394_at) / Fold change /veh CLDN22 /// WWC2 (11732394_at) / RFU HLA-DPB1 (11760878_x_at) / Fold change /veh HLA-DPB1 (11760878_x_at) / RFU SPINT1 (11716480_a_at) / Fold change /veh SPINT1 (11716480_a_at) / RFU GAP43 (11754022_s_at) / Fold change /veh GAP43 (11754022_s_at) / RFU A4GNT (11735810_at) / Fold change /veh A4GNT (11735810_at) / RFU PRB3 (11715151_x_at) / Fold change /veh PRB3 (11715151_x_at) / RFU TUBB4B (11761932_at) / Fold change /veh TUBB4B (11761932_at) / RFU CAPN14 (11732068_a_at) / Fold change /veh CAPN14 (11732068_a_at) / RFU TMCC2 (11721928_a_at) / Fold change /veh TMCC2 (11721928_a_at) / RFU IRGQ (11745062_a_at) / Fold change /veh IRGQ (11745062_a_at) / RFU FAM174B (11720279_a_at) / Fold change /veh FAM174B (11720279_a_at) / RFU TMPRSS4 (11748680_a_at) / Fold change /veh TMPRSS4 (11748680_a_at) / RFU FAM212B (11763350_a_at) / Fold change /veh FAM212B (11763350_a_at) / RFU PLEKHG5 (11743358_a_at) / Fold change /veh PLEKHG5 (11743358_a_at) / RFU ZSCAN30 (11745921_a_at) / Fold change /veh ZSCAN30 (11745921_a_at) / RFU CMKLR1 (11741424_a_at) / Fold change /veh CMKLR1 (11741424_a_at) / RFU LOC101060620 /// MAPK8IP1 (11723275_at) / Fold change /veh LOC101060620 /// MAPK8IP1 (11723275_at) / RFU SPTSSB (11747773_x_at) / Fold change /veh SPTSSB (11747773_x_at) / RFU PRSS12 (11739890_at) / Fold change /veh PRSS12 (11739890_at) / RFU BIN1 (11741810_x_at) / Fold change /veh BIN1 (11741810_x_at) / RFU WNT11 (11732464_a_at) / Fold change /veh WNT11 (11732464_a_at) / RFU C10orf10 (11716521_a_at) / Fold change /veh C10orf10 (11716521_a_at) / RFU C5orf56 (11738089_at) / Fold change /veh C5orf56 (11738089_at) / RFU CYB561 (11721691_x_at) / Fold change /veh CYB561 (11721691_x_at) / RFU ANKRD19P (11752326_a_at) / Fold change /veh ANKRD19P (11752326_a_at) / RFU OR2T12 /// OR2T33 /// OR2T8 (11738714_s_at) / Fold change /veh OR2T12 /// OR2T33 /// OR2T8 (11738714_s_at) / RFU VCAN (11748164_a_at) / Fold change /veh VCAN (11748164_a_at) / RFU JSRP1 (11732532_at) / Fold change /veh JSRP1 (11732532_at) / RFU KRTAP10-11 (11738290_x_at) / Fold change /veh KRTAP10-11 (11738290_x_at) / RFU MYO3A (11730013_a_at) / Fold change /veh MYO3A (11730013_a_at) / RFU EBF3 (11725865_a_at) / Fold change /veh EBF3 (11725865_a_at) / RFU CAMK2N1 (11719241_x_at) / Fold change /veh CAMK2N1 (11719241_x_at) / RFU C5orf56 (11738088_a_at) / Fold change /veh C5orf56 (11738088_a_at) / RFU OLFML3 (11715873_a_at) / Fold change /veh OLFML3 (11715873_a_at) / RFU LOC100653217 /// NTM (11731650_a_at) / Fold change /veh LOC100653217 /// NTM (11731650_a_at) / RFU MAPK11 (11762145_a_at) / Fold change /veh MAPK11 (11762145_a_at) / RFU FIZ1 (11724087_x_at) / Fold change /veh FIZ1 (11724087_x_at) / RFU OASL (11726364_x_at) / Fold change /veh OASL (11726364_x_at) / RFU SOX15 (11748057_x_at) / Fold change /veh SOX15 (11748057_x_at) / RFU CD79A (11719716_a_at) / Fold change /veh CD79A (11719716_a_at) / RFU HIST1H1D (11736915_at) / Fold change /veh HIST1H1D (11736915_at) / RFU CASKIN2 (11723855_a_at) / Fold change /veh CASKIN2 (11723855_a_at) / RFU LOC730098 (11760151_x_at) / Fold change /veh LOC730098 (11760151_x_at) / RFU OR4N2 (11742367_at) / Fold change /veh OR4N2 (11742367_at) / RFU PRRT2 (11749266_a_at) / Fold change /veh PRRT2 (11749266_a_at) / RFU SNX32 (11753110_a_at) / Fold change /veh SNX32 (11753110_a_at) / RFU CDHR5 (11726645_a_at) / Fold change /veh CDHR5 (11726645_a_at) / RFU RCAN1 (11760418_a_at) / Fold change /veh RCAN1 (11760418_a_at) / RFU FAM167A (11723789_a_at) / Fold change /veh FAM167A (11723789_a_at) / RFU FAM26E (11764081_at) / Fold change /veh FAM26E (11764081_at) / RFU ISYNA1 (11749810_s_at) / Fold change /veh ISYNA1 (11749810_s_at) / RFU ACY1 (11761880_at) / Fold change /veh ACY1 (11761880_at) / RFU 11764098_at / Fold change /veh 11764098_at / RFU SAMD14 (11745864_x_at) / Fold change /veh SAMD14 (11745864_x_at) / RFU NPB (11741838_a_at) / Fold change /veh NPB (11741838_a_at) / RFU TMPRSS6 (11731388_a_at) / Fold change /veh TMPRSS6 (11731388_a_at) / RFU KRTAP10-2 (11738614_at) / Fold change /veh KRTAP10-2 (11738614_at) / RFU ARHGAP8 /// PRR5-ARHGAP8 (11727945_x_at) / Fold change /veh ARHGAP8 /// PRR5-ARHGAP8 (11727945_x_at) / RFU KRTAP5-7 /// NADSYN1 (11734609_at) / Fold change /veh KRTAP5-7 /// NADSYN1 (11734609_at) / RFU RASL12 (11751679_a_at) / Fold change /veh RASL12 (11751679_a_at) / RFU CDKN2B (11736163_a_at) / Fold change /veh CDKN2B (11736163_a_at) / RFU PRF1 (11729649_at) / Fold change /veh PRF1 (11729649_at) / RFU, ZNF638 /// ZNF638-IT1 / Fold change vs veh, ZNF638 /// ZNF638-IT1 / RFU, PANK3 / Fold change vs veh, PANK3 / RFU, SH3YL1 / Fold change vs veh, SH3YL1 / RFU, ZEB2 / Fold change vs veh, ZEB2 / RFU, NRIP1 / Fold change vs veh, NRIP1 / RFU, PTTG1IP / Fold change vs veh, PTTG1IP / RFU, CAPN2 / Fold change vs veh, CAPN2 / RFU, MED14 / Fold change vs veh, MED14 / RFU, SNORA58 / Fold change vs veh, SNORA58 / RFU, C1orf63 / Fold change vs veh, C1orf63 / RFU, LRRFIP1 / Fold change vs veh, LRRFIP1 / RFU, NDUFAF7 / Fold change vs veh, NDUFAF7 / RFU, SLC12A2 / Fold change vs veh, SLC12A2 / RFU, IBTK / Fold change vs veh, IBTK / RFU, ESF1 / Fold change vs veh, ESF1 / Fold change vs veh, TMEM50B / RFU, TAOK1 / Fold change vs veh, TAOK1 / RFU, ACBD3 / Fold change vs veh, ACBD3 / RFU, TMA16 / Fold change vs veh, TMA16 / RFU, RWDD3 / Fold change vs veh, RWDD3 / RFU, BCAT1 / Fold change vs veh, BCAT1 / RFU, EDEM3 / Fold change vs veh, EDEM3 / RFU, TMEM33 / Fold change vs veh, TMEM33 / RFU, WDR75 / Fold change vs veh, WDR75 / RFU, AHCTF1 / Fold change vs veh, AHCTF1 / RFU, TFRC / Fold change vs veh, TFRC / RFU, ZDHHC17 / Fold change vs veh, ZDHHC17 / RFU, NOM1 / Fold change vs veh, NOM1 / RFU, ARL8B / Fold change vs veh, ARL8B / RFU, ZBTB11 / Fold change vs veh, ZBTB11 / RFU, TAMM41 / Fold change vs veh, TAMM41 / RFU, KIAA1704 /// LOC100996395 / Fold change vs veh, KIAA1704 /// LOC100996395 / RFU, ING1 / Fold change vs veh, ING1 / RFU, TRMT61B / Fold change vs veh, TRMT61B / RFU, FUBP3 / Fold change vs veh, FUBP3 / RFU, TP53 / Fold change vs veh, TP53 / RFU, TNKS2 / Fold change vs veh, TNKS2 / RFU, ZFP14 / Fold change vs veh, ZFP14 / RFU, ACTR2 / Fold change vs veh, ACTR2 / RFU, PPP3R1 / Fold change vs veh, PPP3R1 / RFU, PIK3R1 / Fold change vs veh, PIK3R1 / RFU, HNRNPA1 / Fold change vs veh, HNRNPA1 / RFU, RNF170 / Fold change vs veh, RNF170 / RFU, ZNF28 / Fold change vs veh, ZNF28 / RFU, RNGTT / Fold change vs veh, RNGTT / RFU, OGT / Fold change vs veh, OGT / RFU, BRD1 / Fold change vs veh, BRD1 / RFU, MARS / Fold change vs veh, MARS / RFU, ZNF655 / Fold change vs veh, ZNF655 / RFU, FAHD1 / Fold change vs veh, FAHD1 / RFU, BDP1 / Fold change vs veh, BDP1 / RFU, LRRCC1 / Fold change vs veh, LRRCC1 / RFU, ARID1A / Fold change vs veh, ARID1A / RFU, ZNF146 / Fold change vs veh, ZNF146 / RFU, ZNF330 / Fold change vs veh, ZNF330 / RFU, GPN3 / Fold change vs veh, GPN3 / RFU, C9orf123 / Fold change vs veh, C9orf123 / RFU, N4BP2L2 / Fold change vs veh, N4BP2L2 / RFU, ARFIP1 / Fold change vs veh, ARFIP1 / RFU, FAM179B / Fold change vs veh, FAM179B / RFU, BCL10 / Fold change vs veh, BCL10 / RFU, UHRF1BP1L / Fold change vs veh, UHRF1BP1L / RFU, BET1 / Fold change vs veh, BET1 / RFU, CNOT2 / Fold change vs veh, CNOT2 / RFU, ZNF268 / Fold change vs veh, ZNF268 / Fold change vs veh, ZNF507 / RFU, DGCR2 / Fold change vs veh, DGCR2 / RFU, WDSUB1 / Fold change vs veh, WDSUB1 / Fold change vs veh, HSP90B1 /// MIR3652 / RFU, ADSS / Fold change vs veh, ADSS / RFU, GK / Fold change vs veh, GK / RFU, ZNF148 / Fold change vs veh, ZNF148 / RFU, TAF9 / Fold change vs veh, TAF9 / RFU, SLC1A5 / Fold change vs veh, SLC1A5 / RFU, SLMO2 / Fold change vs veh, SLMO2 / RFU, ABCC4 / Fold change vs veh, ABCC4 / RFU, LOC101060439 /// RAP1B / Fold change vs veh, LOC101060439 /// RAP1B / RFU, RFX7 / Fold change vs veh, RFX7 / RFU, GTPBP10 / Fold change vs veh, GTPBP10 / RFU, CNEP1R1 / Fold change vs veh, CNEP1R1 / RFU, BIVM-ERCC5 /// ERCC5 / Fold change vs veh, BIVM-ERCC5 /// ERCC5 / RFU, ILF3 / Fold change vs veh, ILF3 / RFU 11762660_at / Fold change /veh 11762660_at / RFU VCAN (11757783_s_at) / Fold change /veh VCAN (11757783_s_at) / RFU DDX43 (11728927_at) / Fold change /veh DDX43 (11728927_at) / RFU KRT8 (11758188_x_at) / Fold change /veh KRT8 (11758188_x_at) / RFU NKD1 (11759106_at) / Fold change /veh NKD1 (11759106_at) / RFU SRD5A1 (11742802_a_at) / Fold change /veh SRD5A1 (11742802_a_at) / RFU TPSAB1 /// TPSB2 (11721975_s_at) / Fold change /veh TPSAB1 /// TPSB2 (11721975_s_at) / RFU GSTM3 (11746129_a_at) / Fold change /veh GSTM3 (11746129_a_at) / RFU IL23R (11737362_x_at) / Fold change /veh IL23R (11737362_x_at) / RFU TMEM51 (11727254_a_at) / Fold change /veh TMEM51 (11727254_a_at) / RFU PIWIL2 (11732686_x_at) / Fold change /veh PIWIL2 (11732686_x_at) / RFU ORM1 (11744905_x_at) / Fold change /veh ORM1 (11744905_x_at) / RFU CCDC152 (11743942_at) / Fold change /veh CCDC152 (11743942_at) / RFU ECM1 (11717891_a_at) / Fold change /veh ECM1 (11717891_a_at) / RFU IL23R (11748794_a_at) / Fold change /veh IL23R (11748794_a_at) / RFU TNFAIP8L3 (11732012_x_at) / Fold change /veh TNFAIP8L3 (11732012_x_at) / RFU MBOAT4 (11741988_at) / Fold change /veh MBOAT4 (11741988_at) / RFU 11764193_at / Fold change /veh 11764193_at / RFU TMEM53 (11763286_at) / Fold change /veh TMEM53 (11763286_at) / RFU MAGEB2 (11727129_at) / Fold change /veh MAGEB2 (11727129_at) / RFU TMEM200A (11744735_a_at) / Fold change /veh TMEM200A (11744735_a_at) / RFU CCDC152 (11751479_a_at) / Fold change /veh CCDC152 (11751479_a_at) / RFU FAM211A (11726209_a_at) / Fold change /veh FAM211A (11726209_a_at) / RFU RGS16 (11746705_a_at) / Fold change /veh RGS16 (11746705_a_at) / RFU VCAN (11755009_s_at) / Fold change /veh VCAN (11755009_s_at) / RFU RHOB (11743442_s_at) / Fold change /veh RHOB (11743442_s_at) / RFU RGS16 (11720943_a_at) / Fold change /veh RGS16 (11720943_a_at) / RFU RGS16 (11720944_at) / Fold change /veh RGS16 (11720944_at) / RFU, VPS4B / Fold change vs veh, VPS4B / RFU, CREB1 / Fold change vs veh, CREB1 / RFU, DNAJC13 / Fold change vs veh, DNAJC13 / RFU, GNAQ / Fold change vs veh, GNAQ / RFU, CDK5R1 / Fold change vs veh, CDK5R1 / RFU, ZRANB3 / Fold change vs veh, ZRANB3 / RFU, CUL4A / Fold change vs veh, CUL4A / RFU, CCNY / Fold change vs veh, CCNY / RFU, UFL1 / Fold change vs veh, UFL1 / RFU, COG3 / Fold change vs veh, COG3 / RFU, DIAPH2 / Fold change vs veh, DIAPH2 / RFU, SKA2 / Fold change vs veh, SKA2 / RFU, AFF3 / Fold change vs veh, AFF3 / RFU, LMF1 / Fold change vs veh, LMF1 / RFU, IPO11 / Fold change vs veh, IPO11 / RFU, DFFB / Fold change vs veh, DFFB / RFU, FOXP1 / Fold change vs veh, FOXP1 / RFU, CARD8 / Fold change vs veh, CARD8 / RFU, STRN3 / Fold change vs veh, STRN3 / RFU, ADK / Fold change vs veh, ADK / RFU, RASSF2 / Fold change vs veh, RASSF2 / RFU, WIPF1 / Fold change vs veh, WIPF1 / RFU, LARP1B / Fold change vs veh, LARP1B / RFU, RASA1 / Fold change vs veh, RASA1 / RFU, RB1 / Fold change vs veh, RB1 / RFU, PPFIA1 / Fold change vs veh, PPFIA1 / RFU, MAT2A / Fold change vs veh, MAT2A / RFU, CCT5 / Fold change vs veh, CCT5 / RFU, WDR92 / Fold change vs veh, WDR92 / RFU, CUX1 / Fold change vs veh, CUX1 / RFU, TTC7A / Fold change vs veh, TTC7A / RFU, TMEM135 / Fold change vs veh, TMEM135 / RFU, DEPTOR / Fold change vs veh, DEPTOR / RFU, CPM / Fold change vs veh, CPM / RFU, DNAJB6 / Fold change vs veh, DNAJB6 / RFU, CACNA2D3 / Fold change vs veh, CACNA2D3 / RFU, DTX4 / Fold change vs veh, DTX4 / RFU, TFCP2 / Fold change vs veh, TFCP2 / RFU, GMCL1 /// GMCL1P1 / Fold change vs veh, GMCL1 /// GMCL1P1 / RFU, AEBP2 / Fold change vs veh, AEBP2 / RFU, SNHG1 /// SNORD22 /// SNORD25 /// SNORD26 /// SNORD27 /// SNORD28 /// SNORD29 /// SNORD31 / Fold change vs veh, SNHG1 /// SNORD22 /// SNORD25 /// SNORD26 /// SNORD27 /// SNORD28 /// SNORD29 /// SNORD31 / Fold change (Aza/veh), C12orf56 (ProbeSet 11735607_a_at) / Fold change (ACY-1035/veh), C12orf56 (ProbeSet 11735607_a_at) / Fold change (Aza/veh), FGFR1OP (ProbeSet 11751329_s_at) / Fold change (ACY-1035/veh), FGFR1OP (ProbeSet 11751329_s_at) / Fold change (Aza/veh), VPS36 (ProbeSet 11739960_a_at) / Fold change (ACY-1035/veh), VPS36 (ProbeSet 11739960_a_at) / RFU SYPL1 (11715823_x_at) / Fold change /veh SYPL1 (11715823_x_at) / RFU IGFBP7 (11715501_s_at) / Fold change /veh IGFBP7 (11715501_s_at) / RFU REEP3 (11722064_at) / Fold change /veh REEP3 (11722064_at) / RFU IGLL1 (11728026_x_at) / Fold change /veh IGLL1 (11728026_x_at): dose or concentration left out as unconfirmed
Settings: ProbeSet 11725217_a_at; LIST B

For Nc1ccc(-c2cccs2)cc1NC(=O)c1ccc2c(c1)cc(C1CC1)n2CCN1CCOCC1 [ACY-1035], which “Fold change vs veh, WDSUB1” value is on record?
The value was 1.02.
